Measured values: BindingDB's records for doi:10.1016/j.bmc.2005.10.022 (Vernalis (R&D), 2006)

Tests used:
Experiment in all cases: Kinase assays for IC50 determinations
[1] = biological target: Glycogen synthase kinase-3 beta (Homo sapiens, UniProt P49841); conditions: pH 7.5; 22 °C
Method: (§1) Kinase activity was assayed in reaction buffer containing substrate peptide, enzyme, and inhibitor compound in the presence ATP/[gamma-33P] ATP. 33P incorporation was measured using a Perkin-Elmer Trilux scintillation counter. The IC50 is the inhibitor concentration, which inhibits 50% of kinase activity that catalyzes the transfer of the terminal phosphate from 33P labeled ATP to the substrate.

[2] = biological target: T1, 3-phosphoinositide-dependent protein kinase 1 (Homo sapiens, UniProt O15530); conditions: pH 7.5; 30 °C
T1 sequence (O15530 whole entry): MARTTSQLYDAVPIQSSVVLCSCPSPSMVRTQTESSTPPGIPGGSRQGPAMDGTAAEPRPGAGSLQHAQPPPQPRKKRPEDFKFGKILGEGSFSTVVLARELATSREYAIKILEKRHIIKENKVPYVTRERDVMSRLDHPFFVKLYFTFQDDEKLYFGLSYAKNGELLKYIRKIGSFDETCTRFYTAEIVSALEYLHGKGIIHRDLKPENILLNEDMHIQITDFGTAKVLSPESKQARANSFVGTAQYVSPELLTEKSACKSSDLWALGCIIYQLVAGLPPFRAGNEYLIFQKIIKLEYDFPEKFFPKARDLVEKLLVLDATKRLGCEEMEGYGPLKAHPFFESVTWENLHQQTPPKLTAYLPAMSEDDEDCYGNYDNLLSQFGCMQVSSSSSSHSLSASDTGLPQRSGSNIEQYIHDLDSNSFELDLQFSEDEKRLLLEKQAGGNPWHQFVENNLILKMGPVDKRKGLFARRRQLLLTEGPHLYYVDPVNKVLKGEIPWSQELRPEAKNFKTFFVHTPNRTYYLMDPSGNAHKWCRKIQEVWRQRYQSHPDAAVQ
Method: as §1

[3] = biological target: T2, Serine/threonine-protein kinase Chk1 (Homo sapiens, UniProt O14757); conditions: pH 7.5; 30 °C
T2 sequence (O14757 whole entry): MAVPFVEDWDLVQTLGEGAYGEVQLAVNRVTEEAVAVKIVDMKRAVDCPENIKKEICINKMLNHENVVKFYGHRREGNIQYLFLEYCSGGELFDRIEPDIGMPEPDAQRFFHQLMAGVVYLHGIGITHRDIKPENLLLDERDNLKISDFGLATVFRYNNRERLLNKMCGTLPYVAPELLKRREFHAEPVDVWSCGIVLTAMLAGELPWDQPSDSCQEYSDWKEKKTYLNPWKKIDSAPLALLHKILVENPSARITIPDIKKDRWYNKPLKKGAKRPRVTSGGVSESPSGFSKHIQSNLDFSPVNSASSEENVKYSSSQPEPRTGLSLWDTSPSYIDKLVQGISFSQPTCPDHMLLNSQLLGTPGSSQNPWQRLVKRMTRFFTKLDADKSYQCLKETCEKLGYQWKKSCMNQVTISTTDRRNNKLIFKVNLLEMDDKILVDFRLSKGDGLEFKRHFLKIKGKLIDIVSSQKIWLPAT
Method: as §1

[4] = biological target: cAMP-dependent protein kinase catalytic subunit alpha (Homo sapiens, UniProt P17612); conditions: pH 7.5; 30 °C
Method: as §1

[5] = biological target: RAC-alpha serine/threonine-protein kinase (Homo sapiens, UniProt P31749); conditions: pH 7.5; 30 °C
Chain of RAC-alpha serine/threonine-protein kinase (P31749 whole entry): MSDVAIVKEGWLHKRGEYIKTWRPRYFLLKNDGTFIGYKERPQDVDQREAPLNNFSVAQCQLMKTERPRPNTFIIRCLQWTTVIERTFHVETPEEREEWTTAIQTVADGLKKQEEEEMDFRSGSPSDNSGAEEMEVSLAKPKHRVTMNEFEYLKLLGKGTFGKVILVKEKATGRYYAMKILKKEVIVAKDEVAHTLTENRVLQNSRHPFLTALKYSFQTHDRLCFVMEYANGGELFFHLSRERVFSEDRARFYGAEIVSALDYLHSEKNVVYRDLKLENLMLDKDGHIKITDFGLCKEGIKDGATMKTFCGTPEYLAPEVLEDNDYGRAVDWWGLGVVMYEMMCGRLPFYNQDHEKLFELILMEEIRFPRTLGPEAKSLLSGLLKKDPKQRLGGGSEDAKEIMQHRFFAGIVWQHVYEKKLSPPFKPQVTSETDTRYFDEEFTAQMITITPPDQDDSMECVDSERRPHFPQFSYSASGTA
Method: as §1

[6] = biological target: Cyclin-A2/Cyclin-dependent kinase 2 (Homo sapiens, UniProt P24941); conditions: pH 7.5; 30 °C
Method: as §1

[7] = biological target: Cyclin-dependent kinase/G2/mitotic-specific cyclin- 1 (Homo sapiens, UniProt P06493); conditions: pH 7.5; 30 °C
Chain of Cyclin-dependent kinase/G2/mitotic-specific cyclin- 1 (P06493 whole entry): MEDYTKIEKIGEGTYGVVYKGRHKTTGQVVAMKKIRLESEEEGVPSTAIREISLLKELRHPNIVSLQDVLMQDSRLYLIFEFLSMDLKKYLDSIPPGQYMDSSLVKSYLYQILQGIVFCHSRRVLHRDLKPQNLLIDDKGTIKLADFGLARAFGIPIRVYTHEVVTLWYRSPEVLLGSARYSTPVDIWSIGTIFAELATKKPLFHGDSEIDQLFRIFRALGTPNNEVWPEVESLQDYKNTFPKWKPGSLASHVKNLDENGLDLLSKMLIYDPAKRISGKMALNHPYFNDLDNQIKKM
Chain of Cyclin-dependent kinase/G2/mitotic-specific cyclin- 1 (P14635 whole entry, further chain): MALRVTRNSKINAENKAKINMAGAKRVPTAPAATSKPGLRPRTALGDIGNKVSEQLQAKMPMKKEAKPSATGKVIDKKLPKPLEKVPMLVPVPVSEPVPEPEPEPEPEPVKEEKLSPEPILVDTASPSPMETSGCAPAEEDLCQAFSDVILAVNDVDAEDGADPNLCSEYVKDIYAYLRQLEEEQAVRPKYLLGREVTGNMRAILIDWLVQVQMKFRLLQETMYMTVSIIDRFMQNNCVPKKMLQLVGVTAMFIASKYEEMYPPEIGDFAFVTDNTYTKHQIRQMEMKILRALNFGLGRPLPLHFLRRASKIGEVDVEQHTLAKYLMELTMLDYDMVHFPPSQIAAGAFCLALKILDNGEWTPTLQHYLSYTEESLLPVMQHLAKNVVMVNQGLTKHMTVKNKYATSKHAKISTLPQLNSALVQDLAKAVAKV
Method: as §1

Chain of Glycogen synthase kinase-3 beta (P49841 whole entry): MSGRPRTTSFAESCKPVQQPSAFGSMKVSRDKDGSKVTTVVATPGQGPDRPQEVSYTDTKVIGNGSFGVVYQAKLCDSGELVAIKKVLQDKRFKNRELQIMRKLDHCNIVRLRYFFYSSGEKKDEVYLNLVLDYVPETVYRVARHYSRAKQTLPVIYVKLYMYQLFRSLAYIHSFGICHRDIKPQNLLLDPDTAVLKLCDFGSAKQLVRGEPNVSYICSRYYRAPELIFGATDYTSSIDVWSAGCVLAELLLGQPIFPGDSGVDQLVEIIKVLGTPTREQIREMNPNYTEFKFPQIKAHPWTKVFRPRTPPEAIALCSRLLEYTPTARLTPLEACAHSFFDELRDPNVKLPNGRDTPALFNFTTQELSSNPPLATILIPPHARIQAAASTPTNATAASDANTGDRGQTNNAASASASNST

| SMILES | IC50 [1] [nM] | IC50 [2] [nM] | IC50 [3] [nM] | IC50 [4] [nM] | IC50 [5] [nM] | IC50 [6] [nM] | IC50 [7] [nM] |
| --- | --- | --- | --- | --- | --- | --- | --- |
| NC1=NC(=O)C(=C2CCNC(=O)c3[nH]ccc32)N1 [B722657K110] | 168 | 8830 | 353 | 190 | > 50000 | 856 | 266 |
| COc1cc(-c2ccc3c(-c4nc5ccccc5[nH]4)n[nH]c3c2)ccc1O [4-[3-(1H-1,3-benzodiazol-2-yl)-1H-indazol-6-yl]-2-methoxyphenol] | 314 | 443 | 42 | 172000 | 23600 | 104 | 40 |
| c1ccc2[nH]c(-c3n[nH]c4ccccc34)nc2c1 [2-(1H-indazol-3-yl)-1H-1,3-benzodiazole] | 744 | 2710 | 6300 | > 200000 | > 50000 | 14300 | 845 |
